Source: article PMC11031590, “Narazaciclib, a novel multi-kinase inhibitor with potent activity against CSF1R, FLT3 and CDK6, shows strong anti-AML activity in defined preclinical models” (Scientific Reports, 2024)
Several values for one entry are separate records, joined by “and”; a condition that tells them apart may be missing. Identical values can stand only once. Like-named read-outs stand apart in the source and are kept apart here.

Key:
[1] = molecular target: CSF1R (Homo sapiens, UniProt P07333); assay: CSF1R kinase inhibition assay; format: biochemical; conditions: read-out: IC50 CSF1R enzymatic activity
Procedure: For CSF1R inhibition, TK-substrate-biotin and ATP were incubated at room temperature for 40 min, followed by adding different concentrations of […] and TK-antibody-Cryptate into each well of the assay plate and incubation at room temperature for 1 h. The fluorescence signal was read at 615 nm (Cryptate) and 665 nm (XL665) on an Envision 2104 plate reader.

[2] = molecular target: FLT3 (Homo sapiens, UniProt P36888); assay: FLT3 kinase inhibition assay (ADP-Glo); format: biochemical; conditions: ATP 10 μM; read-out: IC50 FLT3 enzymatic activity
Procedure: Different assays were used to measure the inhibitory potencies of narazaciclib on FLT3, CSF1R and CDK6. For FLT3 inhibition, the enzyme, substrate (final concentration at 15 μg/μL), ATP (final concentration at 10 μM) and inhibitors were diluted and mixed in kinase buffer (40 mM Tris, pH 7.5; 20 mM MgCl2; 0.1 mg/ml BSA; 50 μM DTT). The mixtures were incubated at 25 °C for 120 min. Then, ADP‐Glo™ Reagent (Promega) was added to the mix and incubated at 25 °C for 40 min followed by the addition of kinase detection reagent and another 30 min at 25 °C. Luminescence was recorded with an integration time of 0.5 s.

[3] = molecular target: CDK6-CyclinD1 (Homo sapiens, UniProt Q00534); assay: CDK6 TR-FRET kinase assay; format: biochemical; conditions: ATP 250 µM; read-out: IC50 CDK6 enzymatic activity
Procedure: For CDK6 inhibition, a Time-resolved fluorescence energy transfer (TR-FRET) kinase assay was performed according to the manufacturer’s instructions. Briefly, narazaciclib at various concentrations was pre-incubated with CDK6-CyclinD1 in kinase buffer at 25 °C for 1 h and then incubated with 12.5 nM Ulight-4E-BP1 peptide and 250 µM ATP at 25 °C for 2 h. The reaction was stopped by incubating with EDTA-containing stop buffer at 25 °C for 5 min. Subsequently, the mixture was incubated with detection buffer at 25 °C for 1 h. Finally, the signal was read on a Nivo Reader in TR-FRET mode (excitation at 320 nm and emission at 665 nm and 615 nm). The signal of the blank control was subtracted from the maximum signal (DMSO without compound) as well as from the value of narazaciclib at each concentration. This corrected emission ratio (ER) was used to calculate the percentage of enzyme activity recovery: enzyme activity recovery (%) = [(narazaciclib ER – blank control ER)[…]] × 100. The results were fitted to a dose–response curve by a 4-parameter log-logistic model: Inhibition%=Bottom+Top-Bottom/1+10^logEC50-x∗HillSlope

[4] = test system: Ba/F3-RBM6-CSF1R cell line; assay: Ba/F3-RBM6-CSF1R proliferation assay (CTG); format: cell-based, mouse; conditions: Mus musculus; not requiring CSF1
Procedure: (§1) The recombinant Ba/F3 cell lines overexpressing human CSF1R, or human RBM6-CSF1R, or human ETV6-CSF1R were generated using a retrovirus vector (Kyinno Co., Ltd. Beijing). The recombinant Ba/F3 lines overexpressing human Kras G12C orEGFR-L718Q mutants, and different mutant variants of FLT3 were also similarly created as well. A standard proliferation assay via CTG readout was performed according to the vendor’s instructions (KYinno Biotechnology Co., Ltd. Beijing).

[5] = test system: Ba/F3-EGFR-L718Q; assay: Ba/F3-EGFR-L718Q proliferation assay (CTG); format: cell-based; conditions: Mus musculus
Procedure: as §1

[6] = test system: M2 primary macrophages; assay: Primary macrophage proliferation assay; format: cell-based; conditions: Homo sapiens
Procedure: Human primary monocytes were isolated with an EasySep™ monocyte isolation kit (Stem Cell) from cryopreserved human PBMCs. […] Narazaciclib was serially diluted with culture medium to 9 final concentrations from 0.004 µM to 24 µM. The differentiated macrophages were incubated for 7 days at 37 °C followed by incubation with Cell Counting-Lite2.0 reagent (Vazyme) for 5 min on a shaker. Luminescence was recorded […]. The proliferation inhibition IC50 (half maximal inhibition concentration) of narazaciclib was determined by fitting the dose–response data to a four-parameter stimulation model.

[7] = test system: Ba/F3-FLT3; assay: Ba/F3-FLT3 proliferation assay; format: cell-based, mouse
Procedure: as §1

[8] = test system: Ba/F3-FLT3-ITD; assay: Ba/F3-FLT3-ITD proliferation assay; format: cell-based, mouse
Procedure: as §1

[9] = test system: Ba/F3-FLT3-ITD (N701K); assay: Ba/F3-FLT3-ITD (N701K) proliferation assay; format: cell-based, mouse
Procedure: as §1

[10] = test system: Ba/F3-FLT3-ITD (Y842H); assay: Ba/F3-FLT3-ITD (Y842H) proliferation assay; format: cell-based, mouse
Procedure: as §1

[11] = test system: Ba/F3-FLT3-ITD (D835F); assay: Ba/F3-FLT3-ITD (D835F) proliferation assay; format: cell-based, mouse
Procedure: as §1

[12] = test system: Ba/F3-FLT3-N701K; assay: Ba/F3-FLT3-N701K proliferation assay; format: cell-based, mouse
Procedure: as §1

[13] = test system: AM5512 AML-PDX; assay: AM5512 systemic AML-PDX model; format: in vivo, NOD/scid mice; conditions: AM5512, 100 mg/kg orally every day
Procedure: (§2) For systemic AML-PDX models, the model establishment and narazaciclib pharmacology experiment were performed essentially as described previously. Briefly, 2 × 10^6 AM7407 cells, or 2 × 10^6 AM7577 cells, or 2 × 10^6 AM5512 cells, or 1.65 × 10^6 AM8096 cells were inoculated intravenously into 4- to 5-week-old female NOD/scid mice for AML development. Engraftment was confirmed by the presence of circulating human CD45+ cells (anti-human CD45 antibody, Cat. 304038, Biolegend) in peripheral blood. Mice with successful engraftment of AML-PDX were randomized into different treatment groups (N = 6) and received their designated treatments. Narazaciclib was administrated orally or intraperitoneally at 10 mg/kg, or 30 mg/kg, or 100 mg/kg every day throughout the study, while Cytarabine was administrated intraperitoneally at 3 mg/kg every day. Following the initiation of designated treatments, leukemic burden was monitored by flow cytometry with anti-human CD45 antibody on the peripheral blood every week as well as on the peripheral blood, bone marrow cells and splenocytes of mice at sacrifice. Mice were sacrifice once the followings are observed: body weight loss over 20%, reduced motility and activity, labored breathing, ruffled coat, hunched back and severe dehydration.

[14] = test system: AM7407 AML-PDX; assay: AM7407 systemic AML-PDX model; format: in vivo, NOD/scid mice; conditions: AM7407, 100 mg/kg orally every day
Procedure: as §2

Chain of CSF1R (P07333 20-972): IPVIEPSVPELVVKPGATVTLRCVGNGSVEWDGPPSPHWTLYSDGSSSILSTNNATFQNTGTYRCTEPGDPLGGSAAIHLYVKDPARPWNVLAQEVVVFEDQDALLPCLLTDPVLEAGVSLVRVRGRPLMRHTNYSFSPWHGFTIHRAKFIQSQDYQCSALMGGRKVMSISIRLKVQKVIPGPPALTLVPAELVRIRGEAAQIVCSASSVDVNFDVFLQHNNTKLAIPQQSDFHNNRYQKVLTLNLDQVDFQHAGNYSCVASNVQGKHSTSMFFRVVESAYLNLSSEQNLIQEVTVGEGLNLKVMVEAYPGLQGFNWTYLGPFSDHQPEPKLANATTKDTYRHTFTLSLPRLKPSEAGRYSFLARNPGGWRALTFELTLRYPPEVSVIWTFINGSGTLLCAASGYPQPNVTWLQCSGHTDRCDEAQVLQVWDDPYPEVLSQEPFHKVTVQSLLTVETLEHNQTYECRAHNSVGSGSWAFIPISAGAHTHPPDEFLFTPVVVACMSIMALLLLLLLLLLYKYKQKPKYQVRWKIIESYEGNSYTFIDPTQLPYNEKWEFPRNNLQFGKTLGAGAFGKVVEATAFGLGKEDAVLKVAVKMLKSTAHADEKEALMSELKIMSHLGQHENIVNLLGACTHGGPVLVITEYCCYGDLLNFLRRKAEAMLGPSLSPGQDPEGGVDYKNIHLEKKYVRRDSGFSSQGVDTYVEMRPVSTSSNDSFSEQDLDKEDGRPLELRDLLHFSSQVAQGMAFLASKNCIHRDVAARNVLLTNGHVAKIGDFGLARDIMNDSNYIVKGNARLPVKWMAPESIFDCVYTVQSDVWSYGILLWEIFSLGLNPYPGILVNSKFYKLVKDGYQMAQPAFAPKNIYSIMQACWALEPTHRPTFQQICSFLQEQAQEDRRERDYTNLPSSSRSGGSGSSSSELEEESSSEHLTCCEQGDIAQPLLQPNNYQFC
Chain of FLT3 (P36888 27-993): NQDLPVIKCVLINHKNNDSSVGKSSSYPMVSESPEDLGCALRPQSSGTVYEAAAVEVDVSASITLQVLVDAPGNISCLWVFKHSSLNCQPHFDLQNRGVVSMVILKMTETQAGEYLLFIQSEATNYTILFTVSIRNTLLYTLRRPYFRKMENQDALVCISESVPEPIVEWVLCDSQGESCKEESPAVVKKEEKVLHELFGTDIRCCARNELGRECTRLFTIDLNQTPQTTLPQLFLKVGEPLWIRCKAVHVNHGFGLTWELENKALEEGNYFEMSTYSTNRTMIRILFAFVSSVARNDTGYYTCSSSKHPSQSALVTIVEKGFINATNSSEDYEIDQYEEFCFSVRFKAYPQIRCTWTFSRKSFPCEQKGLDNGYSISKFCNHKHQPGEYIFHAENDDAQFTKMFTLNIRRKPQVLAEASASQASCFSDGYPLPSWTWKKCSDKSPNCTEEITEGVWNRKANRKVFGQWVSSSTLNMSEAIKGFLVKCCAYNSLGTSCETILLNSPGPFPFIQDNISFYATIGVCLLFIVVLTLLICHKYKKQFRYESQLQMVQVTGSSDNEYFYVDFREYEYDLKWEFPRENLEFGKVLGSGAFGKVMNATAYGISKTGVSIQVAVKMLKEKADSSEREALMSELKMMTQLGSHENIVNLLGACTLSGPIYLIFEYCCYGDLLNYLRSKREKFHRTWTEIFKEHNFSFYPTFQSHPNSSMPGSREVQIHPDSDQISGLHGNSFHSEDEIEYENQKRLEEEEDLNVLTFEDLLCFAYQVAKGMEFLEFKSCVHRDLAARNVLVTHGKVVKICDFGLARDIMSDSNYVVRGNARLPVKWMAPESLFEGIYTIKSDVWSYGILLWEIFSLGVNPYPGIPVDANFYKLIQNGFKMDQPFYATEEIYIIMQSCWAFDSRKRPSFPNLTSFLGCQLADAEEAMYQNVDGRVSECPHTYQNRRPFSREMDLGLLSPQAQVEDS
Chain of CDK6-CyclinD1 (Q00534 whole entry): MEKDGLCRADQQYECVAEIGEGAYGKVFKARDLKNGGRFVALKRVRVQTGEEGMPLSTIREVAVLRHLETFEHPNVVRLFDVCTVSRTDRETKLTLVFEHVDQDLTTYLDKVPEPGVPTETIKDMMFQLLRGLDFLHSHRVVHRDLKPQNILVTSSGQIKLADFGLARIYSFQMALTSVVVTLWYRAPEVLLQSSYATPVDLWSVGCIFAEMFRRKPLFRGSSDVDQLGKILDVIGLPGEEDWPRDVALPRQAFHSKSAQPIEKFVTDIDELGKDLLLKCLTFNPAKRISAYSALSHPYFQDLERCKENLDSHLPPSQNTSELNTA
Chain of CDK6-CyclinD1 (P24385 whole entry partner): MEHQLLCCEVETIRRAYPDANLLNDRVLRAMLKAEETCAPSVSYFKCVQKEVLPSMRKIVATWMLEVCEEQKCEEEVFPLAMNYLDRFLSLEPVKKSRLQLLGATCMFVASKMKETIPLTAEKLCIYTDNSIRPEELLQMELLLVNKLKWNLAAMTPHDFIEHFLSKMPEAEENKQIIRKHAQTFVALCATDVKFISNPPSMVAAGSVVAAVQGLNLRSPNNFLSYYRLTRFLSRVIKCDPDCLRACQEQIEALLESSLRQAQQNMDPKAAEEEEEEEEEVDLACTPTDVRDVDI

IC50 [1]: ~0.000285 µM and 0.00029 µM
IC50 [2]: ~0.0198 µM and 0.0198 µM
IC50 [3]: 0.00053 µM
IC50 [4]: 0.0369 µM
IC50 [5]: 0.633 µM
% of Ba/F3-FLT3 (IC50) ([7]; Ba/F3-FLT3): 100.00%
IC50 ([7]; Mus musculus, Ba/F3-FLT3 (wild type)): 0.301 µM
% of Ba/F3-FLT3 (IC50) [8]: 31.66%
IC50 ([8]; Mus musculus): 0.0953 µM
% of Ba/F3-FLT3 (IC50) [9]: 38.91%
IC50 ([9]; Mus musculus): 0.117 µM
% of Ba/F3-FLT3 (IC50) [10]: 11.20%
IC50 ([10]; Mus musculus): 0.0337 µM
% of Ba/F3-FLT3 (IC50) [11]: 23.10%
IC50 ([11]; Mus musculus): 0.0696 µM
% of Ba/F3-FLT3 (IC50) [12]: 131.40%
IC50 ([12]; Mus musculus): 0.396 µM
SMILES: CN1CCN(c2ccc(Nc3ncc4cc(C#N)c(=O)n(C5CCCC5)c4n3)cc2)CC1 [Narazaciclib, narazaciclib]
IC50 ([6]; M2-macrophages, read-out: IC50 M2-macrophage proliferation): 0.0725 µM
IC50 ([6]; M-CSF : GM-CSF Ratio 0:100, read-out: IC50 M2-Macrophages Growth Inhibition): 3.65 µM
IC50 ([6]; M-CSF : GM-CSF Ratio 25:75, read-out: IC50 M2-Macrophages Growth Inhibition): 3.52 µM
IC50 ([6]; M-CSF : GM-CSF Ratio 50:50, read-out: IC50 M2-Macrophages Growth Inhibition): 3.97 µM
IC50 ([6]; M-CSF : GM-CSF Ratio 75:25, read-out: IC50 M2-Macrophages Growth Inhibition): 3.7 µM
response of model [13]: did not respond
response of model [14]: did not respond
